# Measured values: patent US9730937B2, “RAF kinase modulator compounds and methods of use thereof” (AMBIT BIOSCIENCES CORPORATION, priority 2008, dated 2017)
# Where two headings read alike, the source gives them in different places.
# Experiments:
# RAF kinases = RAF kinases (Homo sapiens (Human), UniProt P04049); details: read-out: RAF1 Kd, class symbols
# Method: (§1) The liganded beads were blocked with excess biotin and washed with blocking buffer (SeaBlock (Pierce), 1% BSA, 0.05% Tween 20, 1 mM DTT) to remove unbound ligand and to reduce non-specific binding. […] Test compounds were prepared as 100× stocks in DMSO and rapidly diluted into the aqueous environment. DMSO was added to control assays lacking a test compound. Primary screen interactions were performed in polypropylene 384-well plates in a final volume of 34 μL, while Kd determinations were performed in polystyrene 96-well plates in a final volume of 135 μL. […] The kinase concentration in the eluates was measured by quantitative PCR. Each kinase was tested individually against each compound. KdS were determined using eleven serial threefold dilutions. A selectivity score, which is a quantitative measure of selectivity of a compound against a panel of enzymes, may be calculated for a compound by dividing the number of enzymes for which a compound meets a set criteria, (for example, a binding constant of 100 nM or less), by the total number of enzymes tested. […] (Note, for those compounds tested in a larger kinase panel, as indicated by an asterisk (*) next to the S35 score, the divisor is 321 (i.e. the larger panel contains 321 distinct kinases, excluding mutant variants.)).
# wild type BRAF kinase = wild type BRAF kinase (Homo sapiens (Human), UniProt P15056); details: read-out: BRAF WT Kd, class symbols
# mutant BRAF kinase = mutant BRAF kinase (Homo sapiens (Human), UniProt P15056, V600E); details: read-out: BRAF V600E Kd, class symbols
# [1] = system: panel of 290 distinct kinases (321 in the larger panel), excluding mutant variants; details: kinase selectivity score, class symbols
# Method: as §1
# [2] = value marked * (larger kinase panel)
# RAF kinases, sequence (P04049 whole entry): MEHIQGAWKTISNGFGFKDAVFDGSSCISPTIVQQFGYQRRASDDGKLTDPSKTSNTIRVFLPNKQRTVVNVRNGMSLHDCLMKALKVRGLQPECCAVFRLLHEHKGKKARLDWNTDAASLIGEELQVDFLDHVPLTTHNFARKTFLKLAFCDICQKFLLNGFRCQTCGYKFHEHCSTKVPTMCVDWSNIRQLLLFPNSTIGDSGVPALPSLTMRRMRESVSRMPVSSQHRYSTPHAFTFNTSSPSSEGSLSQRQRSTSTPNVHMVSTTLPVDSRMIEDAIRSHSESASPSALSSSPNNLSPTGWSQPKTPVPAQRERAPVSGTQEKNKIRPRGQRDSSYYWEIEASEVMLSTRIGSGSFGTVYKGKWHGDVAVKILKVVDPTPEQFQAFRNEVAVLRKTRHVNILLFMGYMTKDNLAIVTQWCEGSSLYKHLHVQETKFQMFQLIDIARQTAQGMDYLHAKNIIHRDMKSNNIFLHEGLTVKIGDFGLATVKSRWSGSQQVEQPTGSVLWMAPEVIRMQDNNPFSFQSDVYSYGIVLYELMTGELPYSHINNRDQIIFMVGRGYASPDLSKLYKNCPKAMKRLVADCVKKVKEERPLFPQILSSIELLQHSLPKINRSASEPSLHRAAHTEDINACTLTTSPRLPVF
# wild type BRAF kinase, sequence (P15056 whole entry): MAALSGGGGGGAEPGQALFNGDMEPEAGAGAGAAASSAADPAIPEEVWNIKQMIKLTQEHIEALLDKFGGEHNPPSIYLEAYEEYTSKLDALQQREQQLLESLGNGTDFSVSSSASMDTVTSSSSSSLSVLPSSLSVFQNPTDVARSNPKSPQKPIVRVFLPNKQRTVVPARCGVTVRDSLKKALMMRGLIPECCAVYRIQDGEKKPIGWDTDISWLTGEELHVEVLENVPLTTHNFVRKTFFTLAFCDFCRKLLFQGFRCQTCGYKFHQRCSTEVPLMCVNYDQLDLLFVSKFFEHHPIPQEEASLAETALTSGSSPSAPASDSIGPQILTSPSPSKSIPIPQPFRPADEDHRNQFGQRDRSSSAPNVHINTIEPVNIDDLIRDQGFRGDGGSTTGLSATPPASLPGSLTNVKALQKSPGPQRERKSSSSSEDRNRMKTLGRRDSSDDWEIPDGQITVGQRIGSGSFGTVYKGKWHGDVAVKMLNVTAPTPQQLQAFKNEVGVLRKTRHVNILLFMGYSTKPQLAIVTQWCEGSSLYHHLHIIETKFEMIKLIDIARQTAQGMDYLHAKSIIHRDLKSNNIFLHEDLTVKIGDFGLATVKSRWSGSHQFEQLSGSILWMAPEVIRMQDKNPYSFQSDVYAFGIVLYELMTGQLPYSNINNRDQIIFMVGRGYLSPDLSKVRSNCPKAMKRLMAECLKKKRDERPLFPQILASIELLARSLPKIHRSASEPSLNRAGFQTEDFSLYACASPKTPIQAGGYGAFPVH
# mutant BRAF kinase, sequence (P15056 whole entry V600E): as the sequence (P15056 whole entry) above, with V600E counted along it
SMILES,Kd (RAF kinases) [nM],Kd (wild type BRAF kinase) [nM],Kd (mutant BRAF kinase) [nM],S35 ([1]; 290 distinct kinases),"S35 [1, 2]"
"COc1cc2ncnc(Oc3cccc(NC(=O)Nc4cc(C(C)(C)C)on4)c3)c2cc1OCCCN1CCOCC1 [Ex 22, 1-(5-tert-butylisoxazol-3-yl)-3-(3-(7-methoxy-6-(3-morpholinopropoxy)quinazolin-4-yloxy)phenyl)urea]",< 250,< 250,< 250,D (D > 0.40),–
"COc1cc2ncnc(Sc3cccc(NC(=O)Nc4cc(C(C)(C)C)on4)c3)c2cc1OCCCS(C)(=O)=O [Ex 64, 1-(5-tert-butylisoxazol-3-yl)-3-(3-(7-methoxy-6-(3-(methylsulfonyl)propoxy)quinazolin-4-ylthio)phenyl)urea]",< 250,< 250,< 250,C (0.20 < C ≦ 0.40),–
"COc1cc2ncnc(Sc3cccc(NC(=O)Nc4cc(C(C)(C)C)on4)c3)c2cc1OCCN1CCS(=O)(=O)CC1 [Ex 71, 1-(5-tert-butyl-isoxazol-3-yl)-3-(3-{6-[2-(1,1-dioxo-thiomorpholin-4-yl)-ethoxy]-7-methoxy-quinazolin-4-ylsulfanyl}-phenyl)-urea]",< 250,< 250,< 250,C (0.20 < C ≦ 0.40),–
"COc1cc2ncnc(Sc3cccc(NC(=O)Nc4cc(C(C)(C)C)on4)c3)c2cc1OCCS(C)(=O)=O [Ex 88, 1-(5-tert-butylisoxazol-3-yl)-3-(3-(7-methoxy-6-(2-(methylsulfonyl)ethoxy)quinazolin-4-ylthio)phenyl)urea]",< 250,< 250,< 250,C (0.20 < C ≦ 0.40),–
"COc1cc2nc(Cl)nc(Sc3cccc(NC(=O)Nc4cc(C(C)(C)C)on4)c3)c2cc1OC [Ex 89, 1-(5-tert-butylisoxazol-3-yl)-3-(3-(2-chloro-6,7-dimethoxyquinazolin-4-ylthio)phenyl)urea]",> 1000,> 1000,> 1000,A (A ≦ 0.10),–
"COc1cc2c(Oc3cccc(NC(=O)Nc4cc(C(C)(C)C)on4)c3)ncnc2cc1OC[C@H](O)CN1CCN(C)CC1 [Ex 100, (R)-1-(5-tert-butylisoxazol-3-yl)-3-(3-(7-(2-hydroxy-3-(4-methylpiperazin-1-yl)propoxy)-6-methoxyquinazolin-4-yloxy)phenyl)urea]",< 250,< 250,< 250,D (D > 0.40),–
"COc1cc2c(Oc3cccc(NC(=O)Nc4cc(C(C)(C)C)on4)c3)ncnc2cc1O[C@H]1CCN(CC(F)(F)F)C1 [Ex 104, (S)-1-(5-tert-butylisoxazol-3-yl)-3-(3-{6-methoxy-7-[1-(2,2,2-trifluoroethyl)pyrrolidin-3-yloxy]quinazolin-4-yloxy}phenyl)urea]",> 1000,> 1000,> 1000,–,B* (0.10 < B ≦ 0.20)
"COc1cc2c(Oc3cccc(NC(=O)Nc4cc(C(C)(C)C)on4)c3)ncnc2cc1OC1CCN(CC(F)F)CC1 [Ex 105, 1-(5-tert-butylisoxazol-3-yl)-3-(3-{7-[1-(2,2-difluoroethyl)piperidin-4-yloxy]-6-methoxyquinazolin-4-yloxy}phenyl)urea]",> 1000,> 1000,> 1000,–,C* (0.20 < C ≦ 0.40)
"COc1cc2ncnc(Oc3cccc(NC(=O)Nc4cc(C(C)C)no4)c3)c2cc1OC [Ex 122, 1-(3-(6,7-dimethoxyquinazolin-4-yloxy)phenyl)-3-(3-isopropylisoxazol-5-yl)urea]",< 250,< 250,< 250,C (0.20 < C ≦ 0.40),–
"COc1cc2ncnc(Oc3cccc(NC(=O)Nc4cc(C5CC5)no4)c3)c2cc1OC [Ex 124, 1-(3-cyclopropylisoxazol-5-yl)-3-(3-(6,7-dimethoxyquinazolin-4-yloxy)phenyl)urea]",< 250,< 250,< 250,C (0.20 < C ≦ 0.40),–
"COc1cc2ncnc(Oc3cccc(NC(=O)Nc4cc(C5(C)CC5)on4)c3)c2cc1OC [Ex 127, 1-(3-(6,7-dimethoxyquinazolin-4-yloxy)phenyl)-3-(5-(1-methylcyclopropyl)isoxazol-3-yl)urea]",< 250,< 250,< 250,C (0.20 < C ≦ 0.40),–
"COc1cc2ncnc(Oc3cccc(NC(=O)Nc4cc(C(=O)N5CCOCC5)cc(C(F)(F)F)c4)c3)c2cc1OC [Ex 149, 1-(3-(6,7-dimethoxyquinazolin-4-yloxy)phenyl)-3-(3-(morpholine-4-carbonyl)-5-(trifluoromethyl)phenyl)urea]",> 1000,> 1000,–,–,B* (0.10 < B ≦ 0.20)
"COc1cc2ncnc(Oc3cccc(NC(=O)Nc4cc(C(C)(C)C)nn4-c4ccccc4)c3)c2cc1OC [Ex 153, 1-(3-tert-butyl-1-phenyl-1H-pyrazol-5-yl)-3-(3-(6,7-dimethoxyquinazolin-4-yloxy)phenyl)urea]",> 1000,> 1000,–,–,D* (D > 0.40)
"COc1cc2ncnc(Oc3cccc(NC(=O)Nc4cc(C5(C(F)(F)F)CCC5)no4)c3)c2cc1OC [Ex 155, 1-(3-(6,7-dimethoxyquinazolin-4-yloxy)phenyl)-3-(3-(1-(trifluoromethyl)cyclobutyl)isoxazol-5-yl)urea]",> 1000,> 1000,–,–,C* (0.20 < C ≦ 0.40)
"COc1cc2ncnc(Sc3cccc(NC(=O)Nc4cc(C5(C(F)(F)F)CCC5)no4)c3)c2cc1OC [Ex 156, 1-(3-(6,7-dimethoxyquinazolin-4-ylthio)phenyl)-3-(3-(1-(trifluoromethyl)cyclobutyl)isoxazol-5-yl)urea]",> 1000,> 1000,–,–,C* (0.20 < C ≦ 0.40)
"COc1cc2ncnc(Oc3cccc(NC(=O)Nc4cc(C(F)(F)F)nn4-c4ccccc4)c3)c2cc1OC [Ex 161, 1-[3-(6,7-dimethoxyquinazolin-4-yloxy)phenyl]-3-[1-phenyl-3-(trifluoromethyl)-1H-pyrazol-5-yl]urea]",> 1000,> 1000,–,–,C* (0.20 < C ≦ 0.40)
"CCOC(=O)Cn1nc(C(C)(C)C)cc1NC(=O)Nc1cccc(Oc2ncnc3cc(OC)c(OC)cc23)c1 [Ex 166, ethyl 2-(3-tert-butyl-5-{3-[3-(6,7-dimethoxyquinazolin-4-yloxy)phenyl]ureido}-1H-pyrazol-1-yl)acetate]",> 1000,> 1000,–,–,C* (0.20 < C ≦ 0.40)
"CCOC(C)(C)c1cc(NC(=O)Nc2cccc(Oc3ncnc4cc(OC)c(OC)cc34)c2)n(-c2ccccc2)n1 [Ex 168, 1-[3-(6,7-dimethoxyquinazolin-4-yloxy)phenyl]-3-[3-(2-ethoxypropan-2-yl)-1-phenyl-1H-pyrazol-5-yl]urea]",> 1000,> 1000,–,–,C* (0.20 < C ≦ 0.40)
"COc1cc2ncnc(Oc3cccc(NC(=O)Nc4cc(C(F)(F)F)nn4-c4ccc(F)cc4)c3)c2cc1OC [Ex 171, 1-[3-(6,7-dimethoxyquinazolin-4-yloxy)phenyl]-3-[1-(4-fluorophenyl)-3-(trifluoromethyl)-1H-pyrazol-5-yl]urea]",> 1000,> 1000,–,–,C* (0.20 < C ≦ 0.40)
"COc1cc2ncnc(Oc3cccc(NC(=O)Nc4cc(C(F)(F)F)nn4-c4ccc(C)cc4)c3)c2cc1OC [Ex 172, 1-[3-(6,7-dimethoxyquinazolin-4-yloxy)phenyl]-3-[1-p-tolyl-3-(trifluoromethyl)-1H-pyrazol-5-yl]urea]",> 1000,> 1000,–,–,C* (0.20 < C ≦ 0.40)
"COc1cc2ncnc(Oc3cccc(NC(=O)Nc4ccccc4)c3)c2cc1OC [Ex 182, 1-(3-(6,7-dimethoxyquinazolin-4-yloxy)phenyl)-3-phenylurea]",> 1000,> 1000,> 1000,–,–
"COc1cc2ncnc(Sc3cccc(NC(=O)Nc4ccc(Cl)c(C(F)(F)F)c4)c3)c2cc1OC [Ex 186, 1-(4-chloro-3-(trifluoromethyl)phenyl)-3-(3-(6,7-dimethoxyquinazolin-4-ylthio)phenyl)urea]",> 1000,> 1000,–,–,B* (0.10 < B ≦ 0.20)
"COc1cc2ncnc(Sc3cccc(NC(=O)Nc4ccc(C(F)(F)F)c(OC)c4)c3)c2cc1OC [Ex 190, 1-(3-(6,7-dimethoxyquinazolin-4-ylthio)phenyl)-3-(3-methoxy-4-(trifluoromethyl)phenyl)urea]",> 1000,> 1000,–,–,B* (0.10 < B ≦ 0.20)
"COc1cc2ncnc(Sc3cccc(NC(=O)Nc4cc(C(F)(F)F)nn4-c4ccccc4)c3)c2cc1OC [Ex 192, 1-[3-(6,7-dimethoxyquinazolin-4-ylthio)phenyl]-3-[1-phenyl-3-(trifluoromethyl)-1H-pyrazol-5-yl]urea]",> 1000,> 1000,–,–,C* (0.20 < C ≦ 0.40)
"CCOC(=O)Cn1nc(C(C)(C)C)cc1NC(=O)Nc1cccc(Sc2ncnc3cc(OC)c(OC)cc23)c1 [Ex 195, ethyl 2-(3-tert-butyl-5-{3-[3-(6,7-dimethoxyquinazolin-4-ylthio)phenyl]ureido}-1H-pyrazol-1-yl)acetate]",> 1000,> 1000,–,–,C* (0.20 < C ≦ 0.40)
"COc1cc2ncnc(Sc3cccc(NC(=O)Nc4cc(C(F)(F)F)nn4-c4ccc(F)cc4)c3)c2cc1OC [Ex 198, 1-[3-(6,7-dimethoxyquinazolin-4-ylthio)phenyl]-3-[1-(4-fluorophenyl)-3-(trifluoromethyl)-1H-pyrazol-5-yl]urea]",> 1000,> 1000,–,–,C* (0.20 < C ≦ 0.40)
"COCCOc1cc2ncnc(Oc3cccc(NC(=O)Nc4cc(C(=O)N5CCOCC5)cc(C(F)(F)F)c4)c3)c2cc1OC [Ex 205, 1-(3-(6-methoxy-7-(2-methoxyethoxy)quinazolin-4-yloxy)phenyl)-3-(3-(morpholine-4-carbonyl)-5-(trifluoromethyl)phenyl)urea]",> 1000,> 1000,–,–,C* (0.20 < C ≦ 0.40)
